Test results from patent US5498601A, “Platelet aggregation-inhibiting peptides” (Nippon Steel Corporation, priority 1992, dated 1996).
Non-standard residues stand in square brackets, D forms with d. Residues, ends and D or L forms follow the SMILES beside them. No end group written: not given here. *: point of attachment. pGlu = O=C1CC[C@@H](C(=O)O)N1; Pip = O=C(O)[C@@H]1CCCCN1; X2 = O=C(c1cc(O)nc(O)n1)*; Aze = O=C(O)[C@@H]1CCN1

Tests used:
[1] = stability of the synthetic peptides in human plasma; type: in vitro ADME; conditions: 37° C., peptide 100 μM; for half-life at 100 μM: male, read-out: Half-Time of the synthetic peptides in plasma
Description: The blood sample thus prepared was examined for the stability in whole blood. […] Then, the supernatant was collected to obtain a plasma fraction. This plasma fraction was examined for the stability in plasma.
The whole blood or plasma (225 μl) was placed in a test tube and heated to 37° C. Each of the synthetic peptides was dissolved in saline (pH 7.4) to prepare a solution at a concentration of 1 mM. Each of the synthetic peptide solutions was added to the whole blood or plasma in an amount of 25 μl (final concentration: 100 μM) and incubated for a certain period of time. After the incubation, the solution was cooled with ice to stop the degradation reaction. The plasma was stored frozen at -20° C. without performing any treatments. The whole blood was centrifuged at 2000 g for 5 minutes at 4° C. and the supernatant was stored frozen.
The samples were analyzed by reversed phase HPLC. The peak area of each synthetic peptide was calculated and the stability in the whole blood or plasma was evaluated from the change of the peak area.

in vivo = experiment: in vivo; design: species or system MCH (ICR) strain mice; conditions: male, MCH (ICR), mouse, iv; for half-life: Half-Time of the synthetic peptides in mice
Description: For the evaluation of stability, MCH (ICR) strain mice (male, body weight: 28-32 g) were used. […] After a certain period of time, blood was collected from the abdominal vein using an injection syringe treated with heparin. Immediately after the collection, the blood was centrifuged (1500 g, 3 minutes) at 4° C. and the supernatant was stored frozen at -20° C. Each of the supernatants was analyzed by reversed phase HPLC in the same manner as that in the aforementioned evaluation of stability in plasma.

platelet aggregation = experiment: intravenous injection in beagle, platelet aggregation of PRP measured over time; type: in vivo; conditions: 5 mg/Kg i.v.
Description: (1) In order to examine how long the peptides of the present invention and heparin, which is used as an anticoagulant at present, can remain without being broken down or eliminated and how long the activity of them persists, intravenous injection experiments were carried out using beagles.
Since the peptides of the present invention have the platelet aggregation-inhibiting activity, the amount of the peptides which remain in the body of an organism without being broken down can be determined by collecting blood and measuring the platelet aggregation-inhibiting activity of the blood at given intervals of time. Thus, the in vivo stability of the peptides can be estimated.
In the experiments, a male beagle having a body weight of 10 Kg was used. […] The collected blood was centrifuged at 1000 rpm for 10 minutes to prepare platelet-rich plasma (PRP). The reminder was further centrifuged at 3000 rpm for 15 minutes to prepare platelet-poor plasma (PPP).
The platelet aggregation ability was determined by measuring the platelet aggregation of the PRP with collagen and ADP using an aggregometer. In the measurement, ADP was added at a final concentration of 7.5 and 10.0 μM and collagen was added at a final concentration of 7.5 and 10.0 μg/ml.

human platelets = experiment: protection of human platelet fraction during storage; conditions: platelet fraction, enzymes present in plasma
Description: Immediately after the blood collection, the syringe was stirred gently to mix the blood with the sodium citrate solution. The mixed blood was centrifuged (1100 rpm, 250 g) at room temperature for 15 minutes and the rotation was stopped without applying the brake. Then, the supernatant was collected with a pipette to obtain a platelet fraction. The remaining blood was further centrifuged (3000 rpm, 1000 g). The supernatant was collected to obtain platelet-poor plasma and stored.
The platelet fraction was placed in a polypropylene test tube, which was capped with a membrane filter to ensure breathability. Then, the test tube was placed on a shaker and stored at room temperature while shaking through vibrational amplitude of 20 cm at a frequency of 2 Hz. All the operations were performed under aseptic conditions to prevent the proliferation of bacteria during the storage.
After the storage for a given period of time, an aliquot of the platelet fraction was sampled and the number of platelets was measured. Prostaglandin E1 (Sigma Co.) was added to give a final concentration of 20 μg/ml and centrifuged at 750 g for 10 minutes. The supernatant was removed and the remainder was washed twice with HEPES-Tyrode's buffer containing prostaglandin E1 to remove the protected peptide. Finally, the platelets were suspended in preliminarily stored platelet-poor plasma. After the incubation for a given period of time, the aggregation ability of the platelets was determined by the method described above.

blood coagulation = experiment: intravenous heparin in beagle, prothrombin time and activated partial thromboplastin time; type: in vivo; conditions: 200 U/Kg i.v.
Description: (2) Heparin, currently used as an anticoagulant, was used as a comparison with the peptides of the present invention.
Therefore, the in vivo stability of heparin was estimated by measuring the time-dependent change in the anticoagulation action which is the main action of heparin.
In the experiments, haparin as dissolved in saline was injected into the vein and blood was collected at given intervals of time to prepare PPP by the same method as that described in (1).
In the measurement of the anticoagulation action, the prepared PPP was used to measure prothrombin time, which is an indicator of blood coagulation activity in vitro, and activated partial thromboplastin time according to a conventional method. Each measurement was conducted under preincubation conditions at 37° C. for 3 minutes using AMELUNG KC-10A (Baxtor CO.). The rate of the disappearance of heparin from the body can be estimated by measuring the prolongations of the prothrombin time and the activated partial thromboplastin time (i.e., the prolongation of time up to coagulation) after the injection.

Row | Compound | half-life at 100 μM [1] [min] | half-life (in vivo) [min] | Half-Time of the synthetic peptides in plasma [1] | also measured
1 | N=C(N)NCCC[C@H](NC(=O)[C@H](CO)NC(=O)c1cc(O)nc(O)n1)C(=O)NCC(=O)N[C@@H](CC(=O)O)C(=O)N[C@@H](Cc1c[nH]c2ccccc12)C(=O)O [Example 9, Orotyl--Ser--Arg--Gly--Asp--Trp--OH] (X2-SRGDW-OH) | ≥ 240 | 10.1 | – | Half-Time of the synthetic peptides in mice (in vivo): 6.9 min; time within which the peptide was broken down in the body or eliminated from the kidney (platelet aggregation): ≤ 60 min
2 | N=C(N)NCCC[C@H](NC(=O)[C@H](CO)NC(=O)[C@@H]1CCC(=O)N1)C(=O)NCC(=O)N[C@@H](CC(=O)O)C(=O)N[C@@H](Cc1c[nH]c2ccccc12)C(=O)O [Example 11, Pyroglutamyl--Ser--Arg--Gly--Asp--Trp--OH] ([pGlu]SRGDW-OH) | ≥ 240 | – | – | –
3 | N=C(N)NCCC[C@H](NC(=O)[C@H](CO)NC(=O)[C@@H]1CCN1)C(=O)NCC(=O)N[C@@H](CC(=O)O)C(=O)N[C@@H](Cc1c[nH]c2ccccc12)C(=O)O [Example 17, (L-2-Azetidinecarboxyl)--Ser--Arg--Gly--Asp--Trp--OH] (H-[Aze]SRGDW-OH) | 49 | 3.3 | – | –
4 | N=C(N)NCCC[C@H](NC(=O)[C@H](CO)NC(=O)[C@@H]1CCCCN1)C(=O)NCC(=O)N[C@@H](CC(=O)O)C(=O)N[C@@H](Cc1c[nH]c2ccccc12)C(=O)O [Example 18, (L-Pipecolinyl)--Ser--Arg--Gly--Asp--Trp--OH] (H-[Pip]SRGDW-OH) | ≥ 120 | 3.3 | at least 120 minutes | –
5 | N=C(N)NCCC[C@H](N)C(=O)NCC(=O)N[C@@H](CC(=O)O)C(=O)N[C@@H](Cc1ccccc1)C(=O)O [RGDF, reference compound] (H-RGDF-OH) | – | – | – | stability when added to a platelet fraction (human platelets): broken down in several hours
6 | PSRGDW-OH [Example 16, Pro--Ser--Arg--Gly--Asp--Trp--OH] | 74.5 | ≤ 2 | 74.5 min | –
7 | WSRGDW-OH [Example 1, Trp--Ser--Arg--Gly--Asp--Trp--OH] | 11.5 | ≤ 2 | 11.5 min | –
8 | heparin | – | – | – | activated partial thromboplastin time (blood coagulation): The same results were obtained; time to completely recover prothrombin time to the level before injection (blood coagulation): 2 to 3 h
